Converted amounts (≈) assume the structure as drawn. The source made the active and inactive calls.

A word on the inhibition: it is the drop in the measured response relative to a control, in per cent. Usually MIC stands for the smallest concentration in the dilution series that meets the test's criterion for growth inhibition. A higher MIC goes with a need for much substance.

For experiment [1], the system named is Streptococcus mutans. The experiment can be described thus: Inhibition of Streptococcus mutans UA159 biofilm formation assessed as conversion of carbohydrates to organic acid measured as pH at 10 ug/ml. The experiment is classed as functional.
Experiment [2] concerns Streptococcus mutans. The experiment can be described thus: Inhibition of adhesion of Streptococcus mutans UA159 to saliva-coated glass surface at 0.156 to 5120 ug/ml by spectrophotometry. The experiment is classed as functional, organism-based.
The test system of experiment [3] is Streptococcus mutans. In words: Inhibition of Streptococcus mutans UA159 biofilm formation assessed as conversion of carbohydrates to organic acid measured as pH at 80 ug/ml. The experiment is classed as functional.
In experiment [4] the test system is Streptococcus mutans. The experiment can be described thus: Inhibition of Streptococcus mutans UA159 biofilm formation after 24 hr by crystal violet staining analysis. It is filed as functional, organism-based.
Experiment [5] has as its system Streptococcus mutans. In words: Inhibition of sucrose-dependent adhesion of Streptococcus mutans UA159 to saliva-coated glass surface at 1.25 ug/ml by spectrophotometry. It is filed as functional.
Experiment [6] deals with T1, Glucosyltransferase-SI (Streptococcus mutans serotype c (strain ATCC 700610 / UA159)) (UniProt P13470).
T1 sequence (whole entry): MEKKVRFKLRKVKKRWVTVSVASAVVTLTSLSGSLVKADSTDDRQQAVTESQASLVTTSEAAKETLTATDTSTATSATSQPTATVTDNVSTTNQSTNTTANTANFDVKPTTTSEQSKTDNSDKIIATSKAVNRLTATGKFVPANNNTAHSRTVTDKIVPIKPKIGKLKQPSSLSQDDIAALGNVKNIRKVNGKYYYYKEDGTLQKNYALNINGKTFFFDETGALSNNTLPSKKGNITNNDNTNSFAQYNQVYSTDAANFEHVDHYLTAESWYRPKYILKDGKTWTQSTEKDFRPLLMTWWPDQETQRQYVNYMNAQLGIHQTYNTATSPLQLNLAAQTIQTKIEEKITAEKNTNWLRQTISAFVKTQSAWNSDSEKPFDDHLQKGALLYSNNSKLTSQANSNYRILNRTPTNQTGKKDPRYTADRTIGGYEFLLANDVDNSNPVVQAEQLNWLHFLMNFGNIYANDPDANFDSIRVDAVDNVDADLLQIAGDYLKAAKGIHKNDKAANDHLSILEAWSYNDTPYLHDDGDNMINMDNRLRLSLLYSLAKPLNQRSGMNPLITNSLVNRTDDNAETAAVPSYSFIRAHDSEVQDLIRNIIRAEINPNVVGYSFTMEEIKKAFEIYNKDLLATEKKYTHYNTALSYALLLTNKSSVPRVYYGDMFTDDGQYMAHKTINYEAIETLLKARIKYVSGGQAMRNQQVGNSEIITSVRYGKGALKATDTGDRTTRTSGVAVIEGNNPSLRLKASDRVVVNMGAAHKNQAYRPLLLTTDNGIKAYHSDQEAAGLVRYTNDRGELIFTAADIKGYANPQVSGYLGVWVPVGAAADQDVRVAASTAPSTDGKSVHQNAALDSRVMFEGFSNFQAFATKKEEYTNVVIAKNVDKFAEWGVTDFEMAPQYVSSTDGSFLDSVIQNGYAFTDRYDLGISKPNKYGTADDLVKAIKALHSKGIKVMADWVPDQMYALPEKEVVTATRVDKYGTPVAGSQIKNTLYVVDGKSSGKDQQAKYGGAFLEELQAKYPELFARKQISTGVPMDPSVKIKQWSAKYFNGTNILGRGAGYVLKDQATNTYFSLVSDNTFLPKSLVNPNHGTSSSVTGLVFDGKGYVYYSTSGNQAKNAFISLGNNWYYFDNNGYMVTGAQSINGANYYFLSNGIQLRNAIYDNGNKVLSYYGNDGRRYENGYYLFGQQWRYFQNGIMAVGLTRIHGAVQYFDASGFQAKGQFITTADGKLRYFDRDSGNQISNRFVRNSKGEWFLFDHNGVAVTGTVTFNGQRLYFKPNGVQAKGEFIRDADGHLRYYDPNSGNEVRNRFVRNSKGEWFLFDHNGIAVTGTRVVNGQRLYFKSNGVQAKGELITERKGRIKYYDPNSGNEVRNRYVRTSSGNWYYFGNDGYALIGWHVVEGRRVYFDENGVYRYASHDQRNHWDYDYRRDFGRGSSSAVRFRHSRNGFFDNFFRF
The experiment can be described thus: Inhibition of Streptococcus mutans UA159 Glucosyltransferase assessed as water-insoluble glucan production using sucrose as substrate at 2.5 ug/ml after 24 hr.

Experiment [7] concerns Streptococcus mutans. In words: Inhibition of Streptococcus mutans UA159 biofilm formation assessed as conversion of carbohydrates to organic acid measured as pH at 0.625 ug/ml. It is filed as functional.
The test system of experiment [8] is Streptococcus mutans. The experiment can be described thus: Inhibition of Streptococcus mutans UA159 biofilm formation assessed as conversion of carbohydrates to organic acid measured as pH at 2.5 ug/ml. The experiment is classed as functional.
Experiment [9] deals with Streptococcus mutans. In words: Inhibition of Streptococcus mutans UA159 cell surface hydrophobicity at 20 ug/ml by spectrophotometry (reference value: 88.01 +/- 1.94%). The experiment is classed as functional.
The test system of experiment [10] is Streptococcus mutans. In words: Inhibition of Streptococcus mutans UA159 biofilm formation at sub-MIC after 24 hr by crystal violet staining analysis. It is filed as functional.
The test system of experiment [11] is Streptococcus mutans. The experiment can be described thus: Inhibition of sucrose-dependent adhesion of Streptococcus mutans UA159 to saliva-coated glass surface at 80 ug/ml by spectrophotometry. The experiment is classed as functional, organism-based.
The subject of experiment [12] is Streptococcus mutans. In words: Inhibition of Streptococcus mutans UA159 cell surface hydrophobicity at 5 ug/ml by spectrophotometry (reference value: 88.01 +/- 1.94%). It is filed as functional.
The subject of experiment [13] is Streptococcus mutans. The experiment can be described thus: Inhibition of Streptococcus mutans UA159 biofilm formation assessed as conversion of carbohydrates to organic acid measured as pH at 5 ug/ml. The experiment is classed as functional.
The subject of experiment [14] is Streptococcus mutans. The experiment can be described thus: Inhibition of Streptococcus mutans UA159 biofilm formation assessed as biofilm thickness at 20 ug/ml after 24 hr by confocal laser scanning microscopic analysis (reference value: 19.74 +/- 0.5 uM). The experiment is classed as functional.
The test system of experiment [15] is Streptococcus mutans. The experiment can be described thus: Inhibition of Streptococcus mutans UA159 biofilm formation assessed as inability of cells to aggregrate and form clumps at MIC after 24 hr by confocal laser scanning microscopic analysis. The experiment is classed as functional, organism-based.
The test system of experiment [16] is Streptococcus mutans. The experiment can be described thus: Inhibition of Streptococcus mutans UA159 biofilm formation assessed as conversion of carbohydrates to organic acid measured as pH at 20 ug/ml. It is filed as functional.
Experiment [17] deals with Streptococcus mutans. In words: Inhibition of Streptococcus mutans UA159 biofilm formation assessed as conversion of carbohydrates to organic acid measured as pH at 40 ug/ml. The experiment is classed as functional.
In experiment [18] the test system is Streptococcus mutans. In words: Inhibition of Streptococcus mutans UA159 biofilm formation after 24 hr at 20 ug/ml by crystal violet staining analysis. The experiment is classed as functional. The note with it: UA159, 24 h.
In experiment [19] the test system is Streptococcus mutans. In words: Inhibition of Streptococcus mutans UA159 biofilm formation assessed as conversion of carbohydrates to organic acid measured as pH at 0.312 ug/ml. The experiment is classed as functional.
Experiment [20] relates to Streptococcus mutans. The experiment can be described thus: Inhibition of Streptococcus mutans UA159 biofilm formation assessed as conversion of carbohydrates to organic acid measured as pH at 1.25 ug/ml. The experiment is classed as functional.
In experiment [21] the test system is Streptococcus mutans. The experiment can be described thus: Antimicrobial activity against Streptococcus mutans UA159 after 24 hr by two-fold serial dilution method. The note with it: UA159, 24 h. It is filed as functional.
For experiment [22], the system named is Streptococcus mutans. The experiment can be described thus: Inhibition of sucrose-dependent adhesion of Streptococcus mutans UA159 to saliva-coated glass surface at 10 ug/ml by spectrophotometry. It is filed as functional.

`CCCCCCCCCCCCCCCCCCCCCCCCCCCC(=O)O` [N-OCTACOSANOIC ACID]: the pH is given as 6.48 with Streptococcus mutans [1]; 7.55 in the experiment with Streptococcus mutans [3]; 4.94 in the experiment on Streptococcus mutans [7]; 5.68 in the experiment on Streptococcus mutans [8]; 6.02 in the experiment with Streptococcus mutans [13]; 6.66 with Streptococcus mutans [16]. For the same compound, the pH with Streptococcus mutans [17] turned out to be 6.98; with Streptococcus mutans [19] it was 4.65; in the experiment with Streptococcus mutans [20], 5.14. Besides, the inhibition entry in the experiment on Streptococcus mutans [2], in the experiment on Streptococcus mutans [11] and in the experiment with Streptococcus mutans [15] was “Active” in each case. The inhibition entry in the experiment with Streptococcus mutans [4] was “Dose-dependent effect”; in [6], 50%. Also, the inhibition at 1.25 µg/mL with Streptococcus mutans [5] amounted to 61.3%. The figures for the inhibition at 20 µg/mL in the experiment with Streptococcus mutans [9] and with Streptococcus mutans [18] were 20.1% and 50%, respectively. Also, in the experiment with Streptococcus mutans [10], the “inhibition (INH)” value is reported as 60%. In the experiment on Streptococcus mutans [12], this compound had an inhibition at 5 µg/mL of 48.4%. In addition, the biofilm thickness with Streptococcus mutans [14] came to 12.7 µm. In addition, the MIC against Streptococcus mutans [21] worked out at 80 µg/mL (≈ 188 µM). For the same compound, testing at 10 µg/mL in the experiment on Streptococcus mutans [22] gave an inhibition of 50%.

Source of the values: ChEMBL document CHEMBL3045716, “Isolation and characterization of n-octacosanoic acid from Viburnum foetens: a novel antibiofilm agent against Streptococcus Mutans” (2012).
